Drawing on ChEMBL document CHEMBL3244162, “Synthesis and biological evaluation of tetramisole analogues as inhibitors of alkaline phosphatase of the 6-thiopurine-resistant tumor sarcoma 180/TG” (J Med Chem, 1979), this text covers IC50 and inhibition for four compounds.

What all share (assay type): cell-based
Test [1] is described as follows: Inhibition of alkaline phosphatase in mouse 180/TG cells assessed as p-nitrophenyl phosphate hydrolysis by spectrophotometry. Particulars: read-out: I50.
The species named for test [2] is Mus musculus. Put plainly: Inhibition of alkaline phosphatase in mouse 180/TG cells assessed as p-nitrophenyl phosphate hydrolysis up to 5 mM by spectrophotometry.
For test [3], the species on record is Mus musculus. Briefly: Inhibition of alkaline phosphatase in mouse 180/TG cells assessed as p-nitrophenyl phosphate hydrolysis up to 1 mM by spectrophotometry.

SMILES strings stand for the structures. Structures can show the parent of a compound that is named as a salt. Active and inactive are the calls of the source. No cut-off for these calls is given here.

In the case of `c1ccc(C2CN3CCSC3=N2)cc1` (stereo not given) [TETRAMISOLE HYDROCHLORIDE], the IC50 in test [1] was 45 µM.
As usually defined, the inhibition is the change of the read-out against control, counted positive when it falls. Regarding `c1ccc(C2CN3CCNC3=N2)cc1` (stereo not given), in the test filed under Mus musculus [2], the inhibition is 15%. For the same compound, the inhibition entry in the test listed under Mus musculus [3] is “inactive”.
For `c1ccc(-c2cn3c(n2)OCC3)cc1`, in the test filed under Mus musculus [3], the inhibition entry was “inactive”.
Regarding `c1ccc(C2CN3CCOC3=N2)cc1` (stereo not given), the IC50 in test [1] is 210 µM.
